A word on the zone of inhibition: it is the extent of the growth-free halo in a diffusion test.

Converted amounts (≈) assume the structure as drawn. Read-outs that look alike come from different tables or passages of the source.

What all share (assay type): cell-based
The subject of assay [1] is Staphylococcus aureus. The experiment in a line: Serial dilution-tube method, MIC. As to conditions: Staphylococcus aureus.
Another assay has as its system Pseudomonas aeruginosa. The experiment in a line: Serial dilution-tube method, MIC. As to conditions: Pseudomonas aeruginosa; brain heart infusion broth; read-out: Minimum Inhibitory Concentration.
Assay [2] concerns Escherichia coli (Antibiotic Resistant). The experiment in a line: Serial dilution-tube method, MIC. On the set-up: key to synergistic effect with cefazolin: b: Shows a synergistic effect when tested 1:1 with cefazolin. As to conditions: for MIC: Escherichia coli, brain heart infusion broth, read-out: Minimum Inhibitory Concentration.
The next assay has as its system Enterobacter cloacae. The assay is described as follows: Serial dilution-tube method, MIC. As to conditions: Enterobacter cloacae; brain heart infusion broth; read-out: Minimum Inhibitory Concentration.
For a further assay, the system named is Klebsiella pneumoniae. The assay is described as follows: Serial dilution-tube method, MIC. As to conditions: Klebsiella pneumoniae; brain heart infusion broth; read-out: Minimum Inhibitory Concentration.
For assay [3], the system named is Staphylococcus aureus (Antibiotic Resistant). The experiment in a line: Serial dilution-tube method, MIC. On the set-up: key to synergistic effect with ampicillin: Shows a synergistic effect when tested 1:1 with ampicillin. As to conditions: for MIC: Staphylococcus aureus, brain heart infusion broth, read-out: Minimum Inhibitory Concentration; for synergistic effect with ampicillin: tested 1:1 with ampicillin.

In another assay the test system is Bacillus subtilis. The experiment in a line: Standard disc-plate method, zone of inhibition. As to conditions: Bacillus subtilis; 25 microgram discs. The source says:
(§1) The utility of the various compounds as intermediates to other compounds of the present invention will be evident from the preceding discussion. The antibacterial activity of these compounds, reflecting their utility in the control of susceptible bacterial infections in man and animals, as animal feed additives for promotion of growth, or as preservatives of materials biodegraded by susceptible microorganisms, is best measured by the standard disc-plate method routinely employed in clinical laboratories for determining the sensitivity of microorganisms to antimicrobial substances. Sensitivity discs are prepared by dipping a standard 6.25 mm. paper disc into a solution of the compound to be tested (conc. 1 mg./ml.) in a volatile solvent (e.g. methylene chloride) and the disc dried, producing discs containing approximately 25 microg. of the compound. The discs are placed on the surface of agar growth media seeded with the test microorganism, previously plated into Petri dishes. The plates are incubated overnight at 35°-37° C. Activity of the test compound is reflected by a zone of inhibition of bacterial growth around the test disc. The diameter of this zone provides a quantitative measure of the activity of the antibacterial substance. The activity of various compounds of the present invention is summarized in Table I. For comparison, results obtained with 10 microg. discs of ampicillin and penicillin G are included as positive controls.

For assay [4], the system named is Escherichia coli. The experiment in a line: Standard disc-plate method, zone of inhibition. As to conditions: Escherichia coli, 25 microgram discs.
From the text: as §1

The subject of assay [5] is Staphylococcus aureus (Antibiotic Resistant). The assay is described as follows: Standard disc-plate method, zone of inhibition. As to conditions: Staphylococcus aureus; 25 microgram discs; antibiotic resistant.
From the text: as §1

In a further assay the test system is Vibrio percolans. The experiment in a line: Standard disc-plate method, zone of inhibition. As to conditions: Comamonas terrigena, 25 microgram discs.
From the text: as §1

Assay [6] has as its system Staphylococcus aureus. The assay is described as follows: Standard disc-plate method, zone of inhibition. As to conditions: Staphylococcus aureus; 25 microgram discs.
From the text: as §1

The subject of another assay is Citrobacter diversus. The experiment in a line: Serial dilution-tube method, MIC. As to conditions: Citrobacter koseri; brain heart infusion broth; read-out: Minimum Inhibitory Concentration.
In another assay the test system is Serratia marcescens. The assay is described as follows: Serial dilution-tube method, MIC. As to conditions: Serratia marcescens; brain heart infusion broth; read-out: Minimum Inhibitory Concentration.
The test system of assay [7] is Escherichia coli. The experiment in a line: Serial dilution-tube method, MIC. On the set-up: key to synergistic effect with ampicillin: Shows a synergistic effect when tested 1:1 with ampicillin. As to conditions: for MIC: Escherichia coli, brain heart infusion broth, read-out: Minimum Inhibitory Concentration.
The subject of another assay is Proteus morgani. The experiment in a line: Serial dilution-tube method, MIC. As to conditions: brain heart infusion broth; read-out: Minimum Inhibitory Concentration.
A further assay relates to Micrococcus luteus. The experiment in a line: Standard disc-plate method, zone of inhibition. As to conditions: Micrococcus luteus; 25 microgram discs.
From the text: as §1

Where [8] appears, read: brain heart infusion broth, read-out: Minimum Inhibitory Concentration.

`CCN1CCN(C(=O)N[C@@H](C(=O)NC2C(=O)N3C(C(=O)O)C(C)C(O)C23)c2ccccc2)C(=O)C1=O` (stereo partly drawn) [EPA H H CH3 H OH I, Sodium 1-Hydroxy-2-methyl-6-[2-phenyl-2-(4-ethyl-2,3-dioxopiperazine-1-carboxamido)acetamido]carbapenam-3-carboxylate]: the MIC in the assay with Staphylococcus aureus [1] (setting [8]) was 50 µg/mL; in the assay with Pseudomonas aeruginosa, > 200 µg/mL; in [2], > 200 µg/mL; in the assay with Enterobacter cloacae it was 50 µg/mL; in the assay on Klebsiella pneumoniae it was > 200 µg/mL; in [3], 200 µg/mL. The MIC in the assay on Citrobacter diversus is > 200 µg/mL; with Serratia marcescens, > 200 µg/mL; with Escherichia coli [7], 100 µg/mL; in the assay on Proteus morgani, 50 µg/mL. Also, the zone of inhibition at 25 µg/disc amounted to 16 mm in the assay with Bacillus subtilis; 16 mm in the assay with Escherichia coli [4]; 9 mm in [5]; 25 mm in the assay on Vibrio percolans; 15 mm in the assay with Staphylococcus aureus [6].
In the case of `CCN1CCN(C(=O)N[C@@H](C(=O)NC2C(=O)N3C(C(=O)OCOC(=O)C(C)(C)C)C(C)C(O)C23)c2ccccc2)C(=O)C1=O` (stereo partly drawn) [EPA H POM CH3 H OH I, Pivaloyloxymethyl 1-Hydroxy-2-methyl-6-[2-phenyl-2-(4-ethyl-2,3-dioxopiperazine-1-carboxamido)acetamido]carbapenam-3-carboxylate], the MIC in the assay on Staphylococcus aureus [1] (setting [8]) is 25 µg/mL (≈ 40.6 µM); with Pseudomonas aeruginosa it was 200 µg/mL (≈ 325 µM); in assay [2], > 200 µg/mL; in the assay with Enterobacter cloacae, 12.5 µg/mL (≈ 20.3 µM); with Klebsiella pneumoniae, 12.5 µg/mL (≈ 20.3 µM); in assay [3], > 200 µg/mL. For the same compound, the MIC was 12.5 µg/mL (≈ 20.3 µM) in the assay with Citrobacter diversus, 25 µg/mL (≈ 40.6 µM) in the assay on Serratia marcescens, 6.25 µg/mL in the assay with Escherichia coli [7] and ≤ 0.39 µg/mL in the assay on Proteus morgani. Moreover, the zone of inhibition at 25 µg/disc came out at 17 mm in the assay with Bacillus subtilis; 20 mm with Escherichia coli [4]; 10 mm in assay [5]; 24 mm with Vibrio percolans; 18 mm with Staphylococcus aureus [6].
As for `CCN1CCN(C(=O)N[C@@H](C(=O)NC2C(=O)N3C(C(=O)OCOC(=O)C(C)(C)C)C(C)C(=O)C23)c2ccccc2)C(=O)C1=O` (stereo partly drawn) [EPA H POM CH3 O I, Pivaloyloxymethyl 2-Methyl-1-oxo-6-[2-phenyl-2-(4-ethyl-2,3-dioxopiperazine-1-carboxamido)acetamido]carbapenam-3-carboxylate], the MIC with Staphylococcus aureus [1] (setting [8]) was 100 µg/mL (≈ 163 µM); in the assay with Pseudomonas aeruginosa, > 200 µg/mL; in assay [2] it was > 200 µg/mL; in the assay on Enterobacter cloacae, 200 µg/mL (≈ 326 µM); in the assay with Klebsiella pneumoniae it was 100 µg/mL (≈ 163 µM); in assay [3] it was > 200 µg/mL. Moreover, the MIC with Citrobacter diversus was determined as 100 µg/mL (≈ 163 µM); in the assay on Serratia marcescens, 100 µg/mL (≈ 163 µM); in the assay on Escherichia coli [7], 100 µg/mL; in the assay with Proteus morgani, 25 µg/mL (≈ 40.7 µM). Besides, the zone of inhibition at 25 µg/disc in the assay with Bacillus subtilis was determined as 21 mm; with Escherichia coli [4] it was 12 mm; in assay [5], 12 mm; in the assay with Vibrio percolans, 21 mm; in the assay on Staphylococcus aureus [6], 12 mm. For the same compound, the “synergistic effect with ampicillin” value with Escherichia coli [7] (tested 1:1 with ampicillin) was “a”.
Turning to `CC1C(=O)C2CC(=O)N2C1C(=O)OCOC(=O)C(C)(C)C` (stereo not drawn) [H H POM CH3 O I, Pivaloyloxymethyl 2-Methyl-1-oxocarbapenam-3-carboxylate], the MIC was > 200 µg/mL in the assay on Staphylococcus aureus [1] (setting [8]); > 200 µg/mL in the assay on Staphylococcus aureus [1] (serial dilution tube test, read-out: minimum inhibitory concentration); > 200 µg/mL with Pseudomonas aeruginosa; > 200 µg/mL in [2]; > 200 µg/mL with Enterobacter cloacae; > 200 µg/mL in the assay with Klebsiella pneumoniae. Further, the MIC (in [3]; in the assay on Citrobacter diversus; in the assay on Serratia marcescens; with Escherichia coli [7]; in the assay with Proteus morgani) was > 200 µg/mL each time. Besides, the “synergistic effect with cefazolin” value in [2] (tested 1:1 with cefazolin) is on record as “b”. The “synergistic effect with ampicillin” value in assay [3] was “a”. Besides, the zone of inhibition at 25 µg/disc in the assay on Bacillus subtilis turned out to be 18 mm; in [5], 0 mm; in the assay on Staphylococcus aureus [6], 18 mm.
For `Cc1onc(-c2ccccc2)c1C(=O)NC1C(=O)N2C(C(=O)OCOC(=O)C(C)(C)C)C(C)C(O)C12` (stereo not drawn) [MPI H POM CH3 H OH I, Pivaloyloxymethyl 1-Hydroxy-2-methyl-6-(5-methyl-3-phenylisoxazole-4-carboxamido)carbapenam-3-carboxylate], the MIC was 100 µg/mL (≈ 200 µM) with Staphylococcus aureus [1] (setting [8]); > 200 µg/mL with Pseudomonas aeruginosa; > 200 µg/mL in assay [2]; > 200 µg/mL in the assay with Enterobacter cloacae; > 200 µg/mL in the assay with Klebsiella pneumoniae; 100 µg/mL in assay [3]. Besides, the MIC with Citrobacter diversus, with Serratia marcescens, in the assay on Escherichia coli [7] and in the assay on Proteus morgani was > 200 µg/mL in each case. Besides, the zone of inhibition at 25 µg/disc in the assay with Bacillus subtilis worked out at 16 mm; with Escherichia coli [4], 0 mm; in [5], 14 mm; in the assay with Vibrio percolans it was 13 mm; in the assay with Staphylococcus aureus [6], 15 mm.
Turning to `CC(=O)OC1C(C)C(C(=O)OCOC(=O)C(C)(C)C)N2C(=O)C(NC(=O)COc3ccccc3)C12` (stereo not drawn) [PMA H POM CH3 H OAc I, Pivaloyloxymethyl 1-Acetoxy-2-methyl-6-(2-phenoxyacetamido)carbapenam-3-carboxylate], the MIC (with Staphylococcus aureus [1] (setting [8]); in the assay with Pseudomonas aeruginosa; in assay [2]; in the assay on Enterobacter cloacae; in the assay with Klebsiella pneumoniae; in assay [3]) was > 200 µg/mL throughout. Also, the MIC in the assay with Citrobacter diversus, in the assay on Serratia marcescens, in the assay on Escherichia coli [7] and in the assay with Proteus morgani was > 200 µg/mL each time. The zone of inhibition at 25 µg/disc worked out at 16 mm with Bacillus subtilis; 0 mm in the assay on Escherichia coli [4]; 0 mm in [5]; 0 mm in the assay with Micrococcus luteus; 11 mm with Staphylococcus aureus [6].
With `COC1(NC(=O)COc2ccccc2)C(=O)N2C(C(=O)OCOC(=O)C(C)(C)C)C(C)C(O)C21` (stereo not drawn) [PMA OMe POM CH3 H OH I, pivaloyloxymethyl 1-hydroxy-6-methoxy-2-methyl-6-(2-phenoxyacetamido)carbapenam-3-carboxylate], the MIC (with Staphylococcus aureus [1] (setting [8]); in the assay with Pseudomonas aeruginosa; in [2]; in the assay on Enterobacter cloacae; with Klebsiella pneumoniae; in assay [3]) was > 200 µg/mL each time. Besides, the MIC in the assay with Citrobacter diversus, in the assay on Serratia marcescens, in the assay with Escherichia coli [7] and in the assay with Proteus morgani was > 200 µg/mL in each case. Besides, the zone of inhibition at 25 µg/disc in the assay with Bacillus subtilis stood at 11 mm; in the assay with Escherichia coli [4], 0 mm; in assay [5] it was 0 mm; in the assay on Vibrio percolans it was 0 mm; in the assay with Staphylococcus aureus [6], 23 mm.
Regarding `COC1(NC(=O)COc2ccccc2)C(=O)N2C(C(=O)OCOC(=O)C(C)(C)C)C(C)C(=O)C21` (stereo not drawn) [PMA OMe POM CH3 O I, Pivaloyloxymethyl 6-Methoxy-2-methyl-1-oxo-6-(2-phenoxyacetamido)carbapenam-3-carboxylate], the MIC (in the assay with Staphylococcus aureus [1] (setting [8]); with Pseudomonas aeruginosa; in assay [2]; in the assay with Enterobacter cloacae; in the assay with Klebsiella pneumoniae; in [3]) was > 200 µg/mL in each case. The MIC in the assay on Citrobacter diversus, in the assay with Serratia marcescens, in the assay on Escherichia coli [7] and in the assay on Proteus morgani was > 200 µg/mL each time. Further, in [3], the “synergistic effect with ampicillin” value is given as “a”. Also, the zone of inhibition at 25 µg/disc came to 11 mm in the assay with Bacillus subtilis; 0 mm in the assay on Escherichia coli [4]; 0 mm in assay [5]; 0 mm with Vibrio percolans; 0 mm in the assay with Staphylococcus aureus [6].

Source of the values: patent US4348264A, “Photocatalyzed process for producing carbapenams and carbapen-2-ems” (Pfizer Inc., priority 1981, dated 1982).
